Reference: US20190247350A1, “COMPOSITION FOR IMPROVING DECREASED ABSORPTION IN DIGESTIVE TRACT, AND COMPOSITION FOR PROMOTING ABSORPTION IN DIGESTIVE TRACT” (AJINOMOTO CO., INC., priority 2016, published 2019)

Key:
Format in all cases: in vivo, mouse
[1] = test system: sodium-dependent glucose transporter gene (SGLT1); assay: Expression of sodium-dependent glucose transporter gene in small intestine after running exercise (real-time PCR); details: feed with cystine 2 wt % for 7 days, 4 hr running; compared to Ex group; tendency toward significance at P<0.1
Description: 7-Week-old male CD2F1 mice (CHARLES RIVER LABORATORIES JAPAN, INC.) were divided into 3 groups (“Sed”, “Ex” and “Ex+Cys2”) (n=12/group), Sed group and Ex group were made to ingest a standard purified feed (AIN-93G composition), and Ex+Cys2 group was made to ingest a standard purified feed (AIN-93G composition) added with cystine (2 wt %) by replacing casein, each for 7 days. Thereafter, each group was fasted overnight, and Ex group and Ex+Cys2 group were made to run in a running wheel for 4 hr (speed=10.5 m/min). Sed group was continuously fasted during the running exercise of Ex group and Ex+Cys2 group. Immediately after completion of running, the small intestine was collected, everted intestine samples were produced according to the method of KirK et al. (ADVANCES In Physiology Education 37 (4) 415-426 (2013), which is incorporated herein by reference in its entirety). As the everted intestine sample, a part of 8 cm below the point of 4 cm from the pyloric part was used.
Furthermore, using Rneasy Lipid Tissue Mini Kit (QIAGEN), total RNA was extracted from a part of the small intestine used for producing the everted intestine sample. QuantStudio 12K Flex Real-Time PCR System (Thermo Fisher Scientific) was used for the measurement of the expression of sodium-dependent glucose transporter gene (SGLT1). […]

[2] = test system: peptide transporter gene (Slc15a1); assay: Expression of peptide transporter gene in small intestine after running exercise (GeneChip array); details: feed with 2 wt % for 7 days, 4 hr running, small intestine 1 hr after running; compared to Ex group; P<0.01
Description: (§1) 7-Week-old male CD2F1 mice (CHARLES RIVER LABORATORIES JAPAN, INC.) were divided into 4 groups (“Sed”, “Ex”, “Ex+Gln” and “Ex+Cys2”) (n=6/group), Sed group and Ex group were made to ingest a standard purified feed (AIN-93G composition), Ex+Gln group was made to ingest a standard purified feed (AIN-93G composition) added with glutamine (2 wt %) by replacing casein, and Ex+Cys2 group was made to ingest a standard purified feed (AIN-93G composition) added with cystine (2 wt %) by replacing casein, each for 7 days. Thereafter, each group was fasted overnight, and Ex group, Ex+Gln group and Ex+Cys2 group were made to run in a running wheel for 4 hr (speed=10.5 m/min). Sed group was continuously fasted during the running exercise of Ex group, Ex+Gln group and Ex+Cys2 group. At 1 hr after completion of running, the small intestine was collected from the mice of each group, and total RNA was extracted using Rneasy Lipid Tissue Mini Kit (QIAGEN). GeneChip Mouse Genome 430 2.0 (3′IVT) array (Affymetrix) was used for the measurement of comprehensive gene expression. Difference in the gene expression level of each group was tested by Dunnett's test following one-way analysis of variance. […]

[3] = test system: small intestine (everted intestine sample); assay: Glucose absorption capacity of everted intestine sample without exercise (Experimental Example 3); details: non-exercise, feed with cystine 2 wt % for 7 days, 10 mM glucose, 37° C., 90 min, Sed+Cys2 compared to Sed group
Description: 7-Week-old male CD2F1 mice (CHARLES RIVER LABORATORIES JAPAN, INC.) were divided into 2 groups (“Sed” and “Sed+Cys2”) (n=6/group), Sed group was made to ingest a standard purified feed (AIN-93G composition), and Sed+Cys2 group was made to ingest a standard purified feed (AIN-93G composition) added with cystine (2 wt %) by replacing casein, each for 7 days. Then, each group was fasted overnight, and the small intestine was collected, everted intestine samples were produced according to the method of KirK et al. (ADVANCES In Physiology Education 37 (4) 415-426 (2013), which is incorporated herein by reference in its entirety). […]
Ringer buffer containing 10 mM glucose was added to the serous membrane side and the villus side of the everted intestine sample of each group, and the sample was incubated under oxygen supply at 37° C. for 90 min. Thereafter, the everted intestine sample was taken out, and the glucose concentration of the Ringer buffer on the serous membrane side and the villus side was measured using a glucose measurement kit (“glucose CII Test Wako” (Wako Pure Chemical Industries, Ltd.)). The glucose absorption capacity of each group was calculated from the difference in the glucose concentration between the villus side and the serous membrane side. The difference in the glucose absorption capacity of each group was determined by a comparison t-test between two groups. […]

[4] = test system: sodium-dependent multivitamin transporter gene (Slc5a6); assay: Expression of sodium-dependent multivitamin transporter gene in small intestine after running exercise (GeneChip array); details: feed with 2 wt % for 7 days, 4 hr running, small intestine 1 hr after running; compared to Ex group; P<0.05
Description: as §1

[5] = test system: small intestine (everted intestine sample); assay: Glucose absorption capacity of everted intestine sample after running exercise (Experimental Example 2); details: feed with cystine 2 wt % for 7 days, 4 hr running
Description: 7-Week-old male CD2F1 mice (CHARLES RIVER LABORATORIES JAPAN, INC.) were divided into 3 groups (“Sed”, “Ex” and “Ex+Cys2”) (n=12/group), Sed group and Ex group were made to ingest a standard purified feed (AIN-93G composition), and Ex+Cys2 group was made to ingest a standard purified feed (AIN-93G composition) added with cystine (2 wt %) by replacing casein, each for 7 days. Thereafter, each group was fasted overnight, and Ex group and Ex+Cys2 group were made to run in a running wheel for 4 hr (speed=10.5 m/min). Sed group was continuously fasted during the running exercise of Ex group and Ex+Cys2 group. […]
Ringer buffer containing 10 mM glucose was added to the serous membrane side and the villus side of the produced everted intestine sample of each group, and the sample was incubated under oxygen supply at 37° C. for 90 min. Thereafter, the everted intestine sample was taken out, and the glucose concentration of the Ringer buffer on the serous membrane side and the villus side was measured using a glucose measurement kit (“glucose CII Test Wako” (Wako Pure Chemical Industries, Ltd.)). The glucose absorption capacity of each group was calculated from the difference in the glucose concentration between the villus side and the serous membrane side. […]

[6] = test system: ABC protein G5 gene (Abcg5); assay: Expression of ABC protein G5 gene in small intestine after running exercise (GeneChip array); details: feed with 2 wt % for 7 days, 4 hr running, small intestine 1 hr after running; compared to Ex group; P<0.05
Description: as §1

aquaporin gene (Aqa3) = assay: Expression of aquaporin gene in small intestine after running exercise (GeneChip array); details: feed with 2 wt % for 7 days, 4 hr running, small intestine 1 hr after running; compared to Ex group; P<0.01
Description: as §1

biotinidase gene (Btd) = assay: Expression of biotinidase gene in small intestine after running exercise (GeneChip array); details: feed with 2 wt % for 7 days, 4 hr running, small intestine 1 hr after running; compared to Ex group; P<0.01
Description: as §1

[7] = test system: ABC protein G8 gene (Abcg8); assay: Expression of ABC protein G8 gene in small intestine after running exercise (GeneChip array); details: feed with 2 wt % for 7 days, 4 hr running, small intestine 1 hr after running; compared to Ex group; P<0.05
Description: as §1

[8] = test system: scavenge receptor class B gene (Scarb1); assay: Expression of scavenge receptor class B gene in small intestine after running exercise (GeneChip array); details: feed with 2 wt % for 7 days, 4 hr running, small intestine 1 hr after running; compared to Ex group; tendency toward significance at P<0.1
Description: as §1

[9] = test system: folic acid transporter gene (Slc46a1); assay: Expression of folic acid transporter gene in small intestine after running exercise (GeneChip array); details: feed with 2 wt % for 7 days, 4 hr running, small intestine 1 hr after running; compared to Ex group; P<0.05
Description: as §1

[10] = test system: amino acid transporter gene (Slc7a7); assay: Expression of amino acid transporter gene in small intestine after running exercise (GeneChip array); details: feed with 2 wt % for 7 days, 4 hr running, small intestine 1 hr after running; compared to Ex group; tendency toward significance at P=0.1
Description: as §1

expression level of biotinidase gene (mRNA level) (biotinidase gene (Btd)) | Compound | expression of SGLT1 (mRNA amount) [1] | expression level of peptide transporter gene (mRNA level) [2] | glucose absorption capacity (difference in glucose concentration between villus side and serous membrane side) [3] | expression level of sodium-dependent multivitamin transporter gene (mRNA level) [4] | glucose absorption capacity (difference in glucose concentration between villus side and serous membrane side) ([5]; 10 mM glucose, 37° C., 90 min, compared to Ex group) | glucose absorption capacity (difference in glucose concentration between villus side and serous membrane side) ([5]; Ex+Cys2 compared to Sed group (no exercise)) | expression level of ABC protein G5 gene (mRNA level) [6] | expression level of aquaporin gene (mRNA level) (aquaporin gene (Aqa3)) | expression level of ABC protein G8 gene (mRNA level) [7] | expression level of scavenge receptor class B gene (mRNA level) [8] | expression level of folic acid transporter gene (mRNA level) [9] | expression level of amino acid transporter gene (mRNA level) [10]
increased | NC(CSSCC(N)C(=O)O)C(=O)O (stereo not drawn) [cystine, 3,3′-dithiobis(2-aminopropanoic acid)] | tended to increase | increased | improved | increased | significantly (P<0.05) improved | higher | increased | increased |  |  |  | 
increased | NC(=O)CCC(N)C(=O)O (stereo not drawn) [glutamine, 2-amino-4-carbamoylbutanoic acid] |  |  |  |  |  |  |  | increased | increased | increased | increased | increased
